Values belong to the compound of their own block, whether it stands above or below them.
Test system: p62-dependent mitophagy
Experiment: Luciferase-p62 assay (Fluc-p62 clearance) in mouse embryonic fibroblasts
Format: cell-based
Details: for Mean Luminescence: Luciferase-p62 assay, mouse embryonic fibroblasts (MEFs), compounds at 10 μM; for % Activity over baseline: percentage of Luciferase-p62 clearance relative to baseline (mean luminescence in the absence of doxycycline induction); for % Activity over baseline / % Activity relative to Rapamycin: MEFs, 10 μM; for % Activity relative to Rapamycin: percentage of activity relative to rapamycin tested in the same experiment at the same concentration
Description: To identify p62-dependent materials which increase mitophagy, a Luciferase-p62 Assay was established. This method provides an approach to measure the ability of a material to modulate p62-dependent mitophagy by using an inducible firefly luciferase-p62 (Fluc-p62) reporter cell system. In this assay, p62 levels are driven by doxycycline treatment. After levels increased, expression of Fluc-p62 is turned off by removal of doxycycline, materials are then added and assessed for how they affect clearance of Fluc-p62 protein, which is proportionate to cellular mitophagy rates (Kelly et al.). The negative control is doxycycline induced Luc-p62 in the absence of compound or bioactive material treatment and in the presence of vehicle (DMSO).
Test materials including bioactive materials were screened in mouse embryonic fibroblasts (MEFs, Harada et al.) expressing the TET-inducible p62-fluc construct as previously described (Brown et al.). […] Gibson assembly was used to insert firefly luciferase (Fluc) and p62 into the pCW57.1 backbone. Fluc, p62, and pCW57.1 were polymerase chain reaction (PCR) amplified using pfu polymerase (Life technologies) and Gibson assembly primers with 20 base pair (bp) overhangs. PCR products were separated by agarose gel electrophoreses, and fragments excised and purified before use in DNA assembly reaction with NEBuilder HiFi DNA Assembly kit (New England Biolabs). After the assembly, the reaction mix was transformed into NEB3040 Stable Competent Escherichia coli (New England Biolabs). After 24 hours growth at 31 degrees Celsius the plasmid was extracted using QIAprep Spin Miniprep kit (Qiagen). The plasmid was sequenced to confirm correct insertion of Fluc-p62. To generate MEFs stably expressing doxycycline inducible Fluc-p62, HEK293FT cells were transfected with Fluc-p62-pCW57.1 and the ViraPower Packaging Mix (Invitrogen) to produce lentivirus. MEFs were transduced with the obtained lentiviral stock following followed by selection with 1 microgram per milliliter puromycin.Fluc-p62expressing MEFs were maintained in DMEM supplemented with 10 percent fetal bovine serum (FBS), 100 units per milliliter penicillin/streptomycin, and 2 millimolar L-glutamine in a humidified atmosphere containing 5 percent carbon dioxide at 37 degrees Celsius. Cells were plated into white 96 well plates (2,000 cells per well with 100 microliters media) and allowed to settle for 24 hours. […] Subsequently, cells were treated with test materials for 48 hours in normal growth medium and analysed using ONE-Glo™+Tox Luciferase Reporter and Cell Viability Assay (Promega) by following the manufacturer's protocol.
Test compositions and control compositions were prepared as described above in the Luciferase-p62 assay (Method 3) and tested accordingly. The compounds used in this example, as examples of bioactive materials, were from the APExBIO DiscoveryProbe™ Natural Product Library Plus (Houston, TX) and evaluated at equivalent concentrations (10 μM).
Data are additionally calculated as percentage of activity relative to rapamycin, a benchmark control compound tested in the same experiment.

- Mean Luminescence: 875.42
- % Activity over baseline: 45.90%
- % Activity relative to Rapamycin: 82.70%
Compound: Schisantherin A

Compound: O=C1C[C@@H](c2ccc(O)c(O)c2)Oc2cc(O)cc(O)c21 [Eriodictyol]
- Mean Luminescence: 852.50
- % Activity over baseline: 47.31%
- % Activity relative to Rapamycin: 85.25%

Compound: NC(=O)Cc1ccccc1 [Compound 2-Phenylacetamide, 2-Phenylacetamide]
- Mean Luminescence: 861.95
- % Activity over baseline: 46.73%
- % Activity relative to Rapamycin: 84.20%

Compound: CCCCCOC(=O)Nc1nc(=O)n([C@@H]2O[C@H](C)[C@@H](O)[C@H]2O)cc1F [Capecitabine]
- Mean Luminescence: 918.89
- % Activity over baseline: 43.21%
- % Activity relative to Rapamycin: 77.86%

- Mean Luminescence: 756.54
- % Activity over baseline: 53.24%
- % Activity relative to Rapamycin: 95.93%
Compound: CNC[C@H](O)[C@@H](O)[C@H](O)[C@H](O)CO.CNC[C@H](O)[C@@H](O)[C@H](O)[C@H](O)CO.C[C@@H](O[C@H]1OCCN(Cc2nn(P(=O)(O)O)c(=O)[nH]2)[C@H]1c1ccc(F)cc1)c1cc(C(F)(F)F)cc(C(F)(F)F)c1 [Fosaprepitant dimeglumine salt]

Compound: CC[C@H]1CN2CC[C@]3(C(=O)Nc4ccccc43)[C@@H]2C[C@@H]1/C(=C\OC)C(=O)OC [Rhynchophylline]
- Mean Luminescence: 953.80
- % Activity over baseline: 41.05%
- % Activity relative to Rapamycin: 73.97%

Compound: CC[C@H](N)C(=O)O [L(+)-2-Aminobutyric acid]
- Mean Luminescence: 981.68
- % Activity over baseline: 39.33%
- % Activity relative to Rapamycin: 70.87%

Compound: Nc1ncnc2c1ncn2[C@@H]1O[C@H](COP(=O)(O)OP(=O)(O)OP(=O)(O)O)[C@@H](O)[C@H]1O [ATP]
- Mean Luminescence: 875.39
- % Activity over baseline: 45.90%
- % Activity relative to Rapamycin: 82.70%

Compound: CC[C@]12CCCN3CCc4c(n(c5ccccc45)[C@@](O)(C(=O)OC)C1)[C@@H]32 [Vincamine]
- Mean Luminescence: 716.24
- % Activity over baseline: 55.74%
- % Activity relative to Rapamycin: 100.42%

Compound: Oc1cccc(O)c1O [Pyrogallol]
- Mean Luminescence: 936.38
- % Activity over baseline: 42.13%
- % Activity relative to Rapamycin: 75.91%

Compound: C[C@]12CC[C@@H]3c4ccc(O)cc4CC[C@H]3[C@@H]1C[C@@H](O)[C@@H]2O [Estriol]
- Mean Luminescence: 784.74
- % Activity over baseline: 51.50%
- % Activity relative to Rapamycin: 92.80%

Compound: O=C(O)c1cc(O)c(O)c(O)c1 [Gallic acid]
- Mean Luminescence: 898.71
- % Activity over baseline: 44.46%
- % Activity relative to Rapamycin: 80.10%

Compound: N[C@H](Cc1ccccc1)C(=O)O [D-Phenylalanine]
- Mean Luminescence: 763.78
- % Activity over baseline: 52.80%
- % Activity relative to Rapamycin: 95.13%

- Mean Luminescence: 962.07
- % Activity over baseline: 40.54%
- % Activity relative to Rapamycin: 73.05%
Compound: O=C1O[C@H]([C@@H](O)CO)C(O)=C1O [Vitamin C]

Compound: CO/N=C(\C(=O)N[C@@H]1C(=O)N2C(C(=O)OC(C)OC(C)=O)=C(COC(N)=O)CS[C@H]12)c1ccco1 (stereo partly drawn) [Cefuroxime axetil]
- Mean Luminescence: 958.52
- % Activity over baseline: 40.76%
- % Activity relative to Rapamycin: 73.44%

Compound: COc1cc(CC(=O)O)ccc1O [Homovanillic acid]
- Mean Luminescence: 908.95
- % Activity over baseline: 43.83%
- % Activity relative to Rapamycin: 78.96%

Compound: CC(C)=CCOc1ccc(/C=C/C(=O)c2ccc(OCC=C(C)C)cc2OCC(=O)O)cc1 [Sofalcone]
- Mean Luminescence: 760.95
- % Activity over baseline: 52.97%
- % Activity relative to Rapamycin: 95.44%

Compound: Oc1ccccc1O [Pyrocatechol]
- Mean Luminescence: 906.35
- % Activity over baseline: 43.99%
- % Activity relative to Rapamycin: 79.25%

Compound: CC(C)=CCC[C@@H](C)[C@H]1CC[C@@]2(C)C3=C(CC[C@]12C)[C@@]1(C)CC[C@H](O)C(C)(C)[C@@H]1CC3 [Lanosterol]
- Mean Luminescence: 957.65
- % Activity over baseline: 40.82%
- % Activity relative to Rapamycin: 73.54%

From US20250381110A1, “SKIN CARE COMPOSITION AND METHOD OF USING THE SAME” (THE PROCTER & GAMBLE COMPANY, priority 2024, published 2025)
